Assay results from the supplement of paper PMC10331698.
± gives the standard deviation of the averaged measurements.

Columns and labels:
Assay in all cases: level (log10 ratio to DMSO vehicle control); higher = higher biomarker level / cell amount than vehicle control
[1] = compound: O=C(O)C(F)(F)C(F)(F)C(F)(F)OC(F)(F)F [Perfluoro(4-methoxybutanoic) acid] (in DMSO)
Protocol: (§1)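 BioMAP Diversity Plus panel of 12 human primary cell co-culture systems (3C, 4H, LPS, SAg, BT, BF4T, BE3C, CASM3C, HDF3CGF, KF3CT, MyoF, Mphg). Compounds were added 1 h before stimulation and left for 24 h (MyoF 48 h; BT 72 h for soluble read-outs or 6 d for IgG). Biomarkers were read by ELISA, cytotoxicity by SRB, PBMC viability and proliferation by Alamar Blue. Each well value was divided by the mean of 8 DMSO control wells on the same plate and log10 transformed; duplicate blinded samples were tested at 4 concentrations.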

[2] = compound: O=C(O)C(F)(OC(F)(F)C(F)(OC(F)(F)C(F)(OC(F)(F)C(F)(F)C(F)(F)F)C(F)(F)F)C(F)(F)F)C(F)(F)F [Perfluoro-(2,5,8-trimethyl-3,6,9-trioxadodecanoic)acid] (in DMSO)
Protocol: as §1

[3] = compound: OCC(F)(F)C(F)(F)C(F)(F)C(F)(F)C(F)(F)C(F)(F)CO [1H,1H,8H,8H-Perfluorooctane-1,8-diol] (in DMSO)
Protocol: as §1

[4] = compound: CN(C(=O)C(F)(F)C(F)(F)C(F)(F)F)[Si](C)(C)C [N-Methyl-N-trimethylsilylheptafluorobutyramide] (in DMSO)
Protocol: as §1

[5] = compound: C[C@@H]1C[C@H]2[C@@H]3CCC4=CC(=O)C=C[C@]4(C)[C@@]3(F)[C@@H](O)C[C@]2(C)[C@@]1(O)C(=O)COP(=O)(O)O [Dexamethasone sodium phosphate] (in DMSO)
Protocol: as §1

[6] = compound: O=C(O)CCC(F)(C(F)(F)F)C(F)(F)F [4,4-bis(Trifluoromethyl)-4-fluoropropanoic acid] (in DMSO)
Protocol: as §1

Test System	level (log10) ([1]; 6700 nM)	level (log10) ([1]; 20000 nM)	level (log10) ([1]; 60000 nM)	level (log10) ([2]; 1100 nM)	level (log10) ([2]; 3300 nM)	level (log10) ([2]; 10000 nM)	level (log10) ([3]; 6700 nM)	level (log10) ([3]; 20000 nM)	level (log10) ([3]; 60000 nM)	level (log10) ([4]; 6700 nM)	level (log10) ([4]; 20000 nM)	level (log10) ([4]; 60000 nM)	level (log10) ([5]; 1500 nM)	level (log10) ([5]; 4400 nM)	level (log10) ([5]; 13000 nM)	level (log10) ([5]; 40000 nM)	level (log10) ([6]; 6700 nM)	level (log10) ([6]; 20000 nM)	level (log10) ([6]; 60000 nM)
CASM3C:CD106/VCAM-1	-0.0045 ± 0.057	-0.0015 ± 0.042	-0.008 ± 0.035	0.0125 ± 0.012	-0.003 ± 0.031	-0.0025 ± 0.005	0.0055 ± 0.022	0.02 ± 0.0028	0.05 ± 0.0085	-0.007 ± 0.0042	-0.027 ± 0.0057	-0.0175 ± 0.013	0.117 ± 0.06	0.11 ± 0.049	0.0875 ± 0.016	0.076 ± 0.054	-0.0265 ± 0.049	-0.0185 ± 0.056	-0.033 ± 0.0099
CASM3C:CD141/Thrombomodulin	0.001 ± 0.035	0.007 ± 0.035	-0.011 ± 0.044	0.0045 ± 0.036	0.018 ± 0.047	0.014 ± 0.027	-0.018 ± 0.0071	-0.02 ± 0.014	-0.0005 ± 0.026	-0.0195 ± 0.025	-0.027 ± 0.011	-0.011 ± 0.0042	0.107 ± 0.11	0.0895 ± 0.067	0.073 ± 0.041	0.123 ± 0.011	-0.0525 ± 0.069	-0.032 ± 0.041	0.0035 ± 0.019
CASM3C:CD142/Tissue Factor	0.0005 ± 0.018	-0.0175 ± 0.011	-0.051 ± 0.018	0.0095 ± 0.018	0.0085 ± 0.011	0.0025 ± 0.015	0 ± 0.014	0 ± 0.023	0.012 ± 0.041	-0.021 ± 0.016	-0.012 ± 0.0028	0.0135 ± 0.026	0.101 ± 0.034	0.099 ± 0.042	0.0875 ± 0.023	0.079 ± 0.0028	-0.0325 ± 0.047	-0.011	0.0385 ± 0.049
CASM3C:CXCL8/IL-8	0.002 ± 0.0099	-0.0065 ± 0.013	0.0165 ± 0.011	-0.0025 ± 0.021	-0.015 ± 0.025	0.0105 ± 0.0035	-0.007 ± 0.027	-0.0135 ± 0.022	0.007 ± 0.011	-0.006	-0.006 ± 0.0028	0.008 ± 0.0042	-0.075 ± 0.044	-0.0815 ± 0.023	-0.092 ± 0.0057	-0.084 ± 0.0042	-0.0115 ± 0.012	-0.0135 ± 0.012	-0.0195 ± 0.005
CASM3C:CXCL9/MIG	-0.0025 ± 0.016	-0.0105 ± 0.0078	0.015 ± 0.0028	0.0055 ± 0.0021	-0.0065 ± 0.0092	0.0075 ± 0.005	0.0035 ± 0.012	0.016 ± 0.0028	0.0235 ± 0.021	-0.0095 ± 0.005	-0.0065 ± 0.015	0.008 ± 0.03	0.0525 ± 0.037	0.038 ± 0.0085	0.0335 ± 0.0021	0.0595 ± 0.025	-0.0035 ± 0.005	-0.0165 ± 0.00071	0.018 ± 0.047
CASM3C:HLA-DR	-0.016 ± 0.014	-0.006 ± 0.023	-0.0095 ± 0.00071	0.0045 ± 0.019	-0.004 ± 0.0028	0.0165 ± 0.012	-0.0005 ± 0.018	-0.026 ± 0.016	-0.014 ± 0.014	-0.0175 ± 0.0021	-0.0105 ± 0.012	0.013 ± 0.011	0.0495 ± 0.06	0.0425 ± 0.022	0.02 ± 0.013	0.0355 ± 0.023	-0.035 ± 0.0014	-0.0285 ± 0.012	0.0035 ± 0.012
CASM3C:IL-6	-0.0215 ± 0.015	-0.0205 ± 0.016	-0.001 ± 0.031	-0.016 ± 0.048	-0.0155 ± 0.043	-0.0125 ± 0.018	-0.014 ± 0.0014	-0.02 ± 0.0099	-0.0005 ± 0.04	-0.0165 ± 0.0035	-0.0105 ± 0.0035	0.0035 ± 0.049	-0.166 ± 0.096	-0.232 ± 0.023	-0.246 ± 0.015	-0.189 ± 0.092	-0.02 ± 0.0014	-0.0225 ± 0.005	0.009 ± 0.061
CASM3C:LDLR	-0.0135 ± 0.011	-0.0245 ± 0.023	0.0035 ± 0.044	0.0065 ± 0.011	0.004 ± 0.0014	0.0025 ± 0.021	0.0045 ± 0.005	-0.0015 ± 0.0035	0.0075 ± 0.032	-0.006 ± 0.0099	-0.0055 ± 0.005	0.0255 ± 0.035	0.05 ± 0.0057	0.03 ± 0.033	0.0065 ± 0.03	0.031 ± 0.05	-0.0085 ± 0.037	0.0045 ± 0.036	0.018 ± 0.014
CASM3C:M-CSF	-0.027 ± 0.021	-0.035 ± 0.021	0.029 ± 0.034	-0.0285 ± 0.029	0.0055 ± 0.016	0.002 ± 0.0014	-0.0185 ± 0.035	-0.0215 ± 0.0078	-0.012 ± 0.035	-0.011 ± 0.0028	-0.018 ± 0.0042	0.0145 ± 0.036	0.157 ± 0.031	0.155 ± 0.023	0.141 ± 0.0085	0.151 ± 0.0092	-0.0145 ± 0.042	0.024 ± 0.048	0.0875 ± 0.056
CASM3C:PAI-I	-0.0015 ± 0.0021	0.0005 ± 0.0035	0.0095 ± 0.0064	-0.002 ± 0.0014	-0.0005 ± 0.0035	0.009 ± 0.0099	-0.006 ± 0.0099	-0.006	0.012 ± 0.0042	0.0015 ± 0.021	-0.003 ± 0.0071	0.0005 ± 0.0078	0.011 ± 0.018	0.0125 ± 0.018	0.0145 ± 0.015	0.015 ± 0.0028	0.0075 ± 0.025	0.007 ± 0.013	0.0035 ± 0.0021
CASM3C:Proliferation	0.0025 ± 0.076	-0.051 ± 0.047	-0.0245 ± 0.069	0.011 ± 0.0014	-0.008 ± 0.016	-0.018 ± 0.023	-0.01 ± 0.0057	-0.024 ± 0.0099	-0.0305 ± 0.044	-0.017 ± 0.03	-0.0095 ± 0.00071	0.039 ± 0.033	0.084 ± 0.025	0.033 ± 0.024	0.062 ± 0.025	0.059 ± 0.0042	0.002 ± 0.013	-0.012 ± 0.0099	-0.003 ± 0.023
CASM3C:SRB	-0.001 ± 0.0014	-0.001 ± 0.0028	-0.0045 ± 0.011	0.0035 ± 0.005	-0.006 ± 0.0071	0.0005 ± 0.0035	-0.001 ± 0.0085	-0.001 ± 0.0085	-0.007 ± 0.011	-0.001 ± 0.0042	0.0085 ± 0.012	-0.002 ± 0.011	-0.0005 ± 0.016	-0.008 ± 0.017	-0.013 ± 0.0057	-0.0115 ± 0.00071	-0.007 ± 0.0014	-0.0005 ± 0.0078	-0.0025 ± 0.0035
CASM3C:Serum Amyloid A	-0.0435 ± 0.015	-0.0465 ± 0.0064	-0.0075 ± 0.081	-0.005 ± 0.014	0.0105 ± 0.036	0.04 ± 0.03	-0.013 ± 0.038	-0.0215 ± 0.033	-0.022 ± 0.035	-0.018 ± 0.0099	-0.0275 ± 0.025	0.013 ± 0.082	0.489 ± 0.034	0.473 ± 0.015	0.4675 ± 0.0021	0.469 ± 0.022	-0.008 ± 0.013	0.064 ± 0.059	0.159 ± 0.0057
HDF3CGF:CCL2/MCP-1	0.0035 ± 0.035	0.012 ± 0.018	0.019 ± 0.064	-0.0035 ± 0.016	-0.0365 ± 0.005	-0.01 ± 0.0042	-0.012	-0.0175 ± 0.015	-0.0185 ± 0.016	-0.032 ± 0.0085	-0.0245 ± 0.0078	-0.0205 ± 0.028	-0.015 ± 0.035	-0.0405 ± 0.023	-0.038 ± 0.0099	-0.044 ± 0.0085	-0.014 ± 0.016	-0.01 ± 0.017	0.005 ± 0.0042
HDF3CGF:CD54/ICAM-1	-0.0185 ± 0.0078	-0.0275 ± 0.0064	-0.0215 ± 0.0092	-0.001 ± 0.0057	-0.0015 ± 0.012	0.011 ± 0.031	-0.01 ± 0.0099	0.009 ± 0.0099	0.019 ± 0.0014	-0.009 ± 0.013	-0.0085 ± 0.018	0.011 ± 0.023	0.004 ± 0.0057	0.029 ± 0.042	0.01 ± 0.038	0.026 ± 0.013	0.006 ± 0.0099	-0.009 ± 0.041	-0.0025 ± 0.005
